Data set [1] deals with promoter of the human klotho gene. The data set is described as follows: Luciferase expression experiment, human klotho promoter reporter (1.7 kbp or 240 bp) in RPTEC cells. The settings on record: 5 μM, 24 hours, promoter 1.7 kbp or 240 bp, among Comparative Examples 1 to 4, FIG. 1. The data set is classed as cell-based. The protocol: (§1) In order to evaluate whether the klotho gene was expressed by the evaluation of luciferase activity, human renal proximal tubule epithelial cells (RPTECs) (ATCC CRL-4031), which are epithelial cells of the proximal tubule of the human kidneys, were purchased from Lonza, USA and used.
(§2) For culturing, a Renal Epithelial Growth Medium (REGM™) Bullet kit, also manufactured by the same Lonza company, was used, and the cells were cultured under conditions of 37° C. and 5% CO2. As a plasmid for luciferase expression, a plasmid in which the promoter site of a human KL (klotho) gene was disposed to regulate the expression of a firefly luciferase gene was used.
The plasmid was incorporated into cells using an X-treme GENE transfection reagent from Roche. The activity of luciferase expressed in cells was measured using a Dual-Luciferase reporter assay system manufactured by Promega. After the cultured cells were treated with each compound at an indicated concentration for 24 hours, the activity of luciferase was measured. It is indirectly shown that the expression of the klotho gene may be increased when the activity of luciferase is high. […]

Data set [2] has the same test system. The experiment in a line: Luciferase expression experiment, reporter gene pHKP-luc (promoter up to -2.1 kb upstream of human klotho gene) in RPTECs. Format: cell-based. On the procedure: as §1, §2
The plasmid was incorporated into cells using an X-treme GENE transfection reagent from Roche. The activity of luciferase expressed in cells was measured using a Dual-Luciferase reporter assay system manufactured by Promega. After the cultured cells were treated with each compound at an indicated concentration for 24 hours, the activity of luciferase was measured. It is indirectly shown that the expression of the klotho gene may be increased when the activity of luciferase is high.
The results of confirming the expression of a reporter gene by treating RPTECs, which are epithelial cells of the proximal tubule of the human kidneys, with Examples 1 to 6 at concentrations of 0.5, 1 and 5 μM and Comparative Example 1 at a concentration of 5 μM and using a reporter gene (pHKP-luc) including a promoter included up to −2.1 kb upstream of the human klotho gene are illustrated in FIGS. 2 and 3.
Background: Reporter assays use an easily measured gene product as a stand-in for the process of interest.

The subject of data set [3] is klotho (KL) gene. The data set is described as follows: Quantitative evaluation of klotho (KL) gene expression level using real-time PCR in RPTEC cells. The data set is classed as cell-based, human. The settings on record: treated for 6 hours, FIG. 4. The protocol: For RNA extraction from RPTEC cells, which are epithelial cells of the proximal tubule of the human kidneys, treated with the compounds of Comparative Example 1 and Examples 1 and 2 for 6 hours, an RNeasy kit from Qiagen Inc. was used. The results of preparing cDNA from extracted RNA using a Superscript II kit from Thermo Fisher Scientific, Inc. and performing the quantitative evaluation using Taqman Gene Expression assays from Applied Biosystems as a klotho (KL) gene-specific kit are illustrated in FIG. 4.
(In qPCR the cycle at which signal appears reflects the starting amount.)

Data set [4] deals with klotho (KL) gene. The experiment in a line: Quantitative evaluation of klotho (KL) gene expression level using general PCR in RPTEC cells. Format: cell-based, human. The settings on record: 2.5 μM, 6 hours, FIG. 5. On the procedure: After RPTEC cells, which are epithelial cells of the proximal tubule of the human kidneys, were each treated with the compounds of Examples 7 to 10 at 2.5 μM for 6 hours, RNA was extracted from the cells, and cDNA was prepared from the extracted RNA using a Superscript II kit from Thermo Fisher Scientific, Inc., and then general PCR was performed.
Information on the primers used in the experiment is as follows. • KL-F […] (SEQ ID NO: 1) • KL-R […] (SEQ ID NO: 2) • GAPDH-F […] (SEQ ID NO: 3) • GAPDH-R […] (SEQ ID NO: 4)
The DNA amplified by PCR was confirmed by staining with ethidium bromide after electrophoresis on an agarose gel, and the amounts of DNA in the band were quantitatively compared using the SPEedyQuant program, and are illustrated in FIG. 5.

Data set [5] deals with human kidney-2 (HK2) cells. The data set is described as follows: Toxicity test (EZ-Cytox) in HK2 cells. Format: cell-based. The settings on record: 12.5 μM or 25 μM, 24 hours, FIG. 6. On the procedure: Cultured human kidney-2 (HK2) cells were treated with Comparative Example 1, Example 2 and Examples 9 to 10 at a concentration of 25 μM or 12.5 μM, and after 24 hours, cytotoxicity was measured using an EZ-Cytox kit.

The subject of data set [6] is klotho protein. The experiment in a line: Klotho protein expression level in cisplatin-treated HK-2 cells. The settings on record: FIG. 7B. The data set is classed as cell-based, human. On the procedure:
As in the protocol in FIG. 7A, a disease model was made by treating HK-2 cells (human renal cells) with cisplatin (20 μM), and then treated with a KS1 compound (Example 10) (3 μM). After 24 hours, the expression degree of the klotho protein was confirmed by obtaining the cells.

Data set [7] relates to chronic kidney disease model. The data set is described as follows: Chronic kidney disease model (db/db mice, high protein diet). The data set is classed as in vivo. The note with it: oral gavage daily 2, 10, 50 mg/kg. The source says:
For the chronic kidney disease model, 20 db/m mice (10 5-week-old mice, 10 6-week-old mice) and 50 db/db mice (25 5-week-old mice and 25 6-week-old mice) were imported from Jackson Lab, USA, and after the adaptation period, the experiment was started (mouse model number JAX 000642-BKS.Cg-Dock7m+/+Leprdb/j5W/M Wildtype for Dock7m, BKS.Cg-Dock7m+/+Leprdb/j 5W/M Heterozygous for Dock7m). Each group was divided into set1 and set2 due to the large number of mice, with 5-week-old mice as set2, and the experiment was conducted one week later so that all mice were in the experiment from 6 weeks of age. After measuring the body weight, the mice were evenly distributed in each group and fed a normal diet (ND) and a high protein diet (HPD). After 3 weeks on the high protein diet, 2-hour urine samples were collected via a metabolic cage for analysis. […] After 12 weeks of drug administration, mice were sacrificed, and blood and organs were obtained for hematology and tissue analysis. Urine analysis was performed at SCL healthcare center, and blood analysis was performed using I-STAT cartridge (CHEM 8+).
The animals were anesthetized with anesthetic and perfusion-fixed with fixative (Periodate-Lysine-2% paraformaldehyde) through the heart for 8 minutes. Additional fixation was performed at 4° C. for 16 hours or more in the same fixative. After undergoing a dehydration process through an alcohol series, the tissue slides were prepared by embedding in wax and then cutting to 5 μm. After the tissue was hydrated again through the hydration process, it was immersed in a citric acid solution of pH 6 and heated to retrieve the aldehyde-fixed protein. Endogenous peroxidase was then blocked by treatment with 1.7% H2O2 in methanol for 30 minutes, followed by treatment with 0.5% triton X-100 in PBS for 15 minutes to increase the penetration of the antibody. […] Using more than 100 photographs for each group, the expressed areas were quantified using a color image analyzer (TDI Scope Eye version 3.6 for windows; Olympus, Japan) (FIG. 14). […]

The subject of data set [8] is unilateral ureter obstruction model. The data set is described as follows: Unilateral ureter obstruction (UUO) model. Format: in vivo. The note with it: mice, 20 mg/kg/day into the abdominal cavity. On the procedure: In a unilateral ureter obstruction model, 5-week-old male […] mice were used. After the right ureter was tied with a thread to create a unilateral ureter obstruction model, the KS1 compound (20 mg/kg/day) was injected into the abdominal cavity daily starting 24 hours later. After that, samples were collected by sacrificing the mice on days 7 and 14 and tested (FIG. 8A). H&E staining was performed to investigate changes in the nucleus and cytoplasm in the unilateral ureter obstruction model, and the results are illustrated in FIG. 9. […] In addition, Sirius Red staining was performed to investigate the change according to the progress of fibrosis in the unilateral ureter obstruction model. […] TUNEL staining was performed to investigate the degree of apoptosis in the unilateral ureter obstruction model.

The mark [9] stands for this setting: RPTECs, Examples at 0.5, 1 and 5 μM, Comparative Example 1 at 5 μM, FIG. 2.

We go through five compounds from patent US12691102B2, “Composition for preventing or treating chronic kidney disease, comprising compound that induces expression of anti-aging gene klotho” (KLOTHO SCIENCES, priority 2021, dated 2026).

As for `O=C(Nc1ccccc1Cl)c1c[nH]c2ccccc12` [Comparative Example 1, N-(2-chlorophenyl)-1H-indole-3-carboxamide], in data set [1], the “luciferase activity (klotho promoter reporter)” value is “the highest”.

Turning to `O=C(Nc1nc2ccccc2o1)c1ccc([N+](=O)[O-])cc1Cl` [Example 1, N-(benzo[d]oxazol-2-yl)-2-chloro-4-nitrobenzamide], the “expression of the reporter gene (pHKP-luc)” value in data set [2] (setting [9]) is recorded as “at a level similar to that of Comparative Example 1”.

In the case of `Cc1ccc2oc(Nc3ccc(Cl)c(Cl)c3)nc2c1` [Example 2], the “klotho (KL) gene mRNA expression level (real-time PCR)” value in data set [3] was “at a level similar to that of Comparative Example 1”. The “expression of the reporter gene (pHKP-luc)” value in data set [2] (RPTEC cells, 5 μM, FIG. 3) is “at a level similar to that of Comparative Example 1”; in data set [2] (setting [9]), “at a level similar to that of Comparative Example 1”.

For `Fc1ccc(Nc2nc3ccccc3o2)cc1F` [Example 10, N-(3,4-difluorophenyl)benzo[d]oxazol-2-amine], in data set [4], the “expression level of the klotho (KL) gene, relative to the level of Comparative Example 1” value is listed as “about 10 times”. Further, in data set [5], the “improvement of toxicity compared to Comparative Example 1” value is given as at least 20% and the “toxicity (cytotoxicity, EZ-Cytox)” value is “the least toxicity”. In addition, the “expression of the klotho protein” value in data set [6] (HK-2 cells, cisplatin (20 μM) disease model, then 3 μM compound, 24 hours) is on record as “increased”. In addition, the “expression of klotho protein (immunohistochemistry, kidney)” value in data set [7] (12 weeks, FIG. 14, 15) is “statistically significantly (p<0.05) increased”. Moreover, the “blood urea nitrogen (BUN)” value in data set [7] (12 weeks, FIG. 17) was “statistically significant (p<0.05) decrease”. For the same compound, in data set [7] (FIG. 16), the “microalbumin level in urine (in proportion to creatinine)” value was “statistically significant (p<0.05) decrease”. Further, the “renal hypertrophy (kidney size)” value in data set [8] (FIG. 8B) is listed as “no difference in size”. Also, the “nuclear and cytoplasmic changes, tissue destruction (H&E staining)” value in data set [8] (one-week and two-week samples, FIG. 9) was “a large reduction in tissue destruction”. For the same compound, in data set [8] (one-week sample, FIG. 12), the klotho protein expression entry is given as “increased”. In data set [8] (vs UUO model not treated, FIG. 10), the “fibrosis (Sirius Red staining)” value was “fibrosis occurred less”. Besides, the “apoptosis (TUNEL staining)” value in data set [8] (vs UUO model not treated, FIG. 11) is recorded as “remarkably reduced”. Moreover, the “MMP-9 protein expression level (inflammation marker)” value in data set [8] (week 1 and week 2, FIG. 13) was “remarkably reduced”.

`N.N.[Cl][Pt][Cl]` [cisplatin, reference compound]: in data set [6] (HK-2 cells treated with cisplatin (20 μM) alone), the “expression of the klotho protein” value is “decreased”.
